# Reference: the supplement of paper PMC10307832
# Legend:
# Assay in all cases: relative viability (nuclei count vs DMSO), 5 days (fraction); higher = more cells survive
# VE-821 + AZD7762 = compound: CS(=O)(=O)c1ccc(-c2cnc(N)c(C(=O)Nc3ccccc3)n2)cc1 [VE-821] + NC(=O)Nc1cc(-c2cccc(F)c2)sc1C(=O)N[C@H]1CCCNC1 [AZD7762] (partner 0.2 µM)
# In short: (§1)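 Relative viability equals treated-well nuclei counts divided by vehicle-well nuclei counts. Counts came from 4× images of lung cancer cell lines grown in 1536-well plates for 5 days after pin-tool dosing on the day after seeding. Dosing used one drug alone or a fixed anchor-drug dose plus five library-drug doses (not always all listed) in √10 steps, and values are medians of duplicate plates.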
# Vismodegib + Palbociclib = compound: CS(=O)(=O)c1ccc(C(=O)Nc2ccc(Cl)c(-c3ccccn3)c2)c(Cl)c1 [Vismodegib] + CC(=O)c1c(C)c2cnc(Nc3ccc(N4CCNCC4)cn3)nc2n(C2CCCC2)c1=O [Palbociclib] (partner 0.5 µM)
# In short: as §1
# Vismodegib + Linsitinib = compound: CS(=O)(=O)c1ccc(C(=O)Nc2ccc(Cl)c(-c3ccccn3)c2)c(Cl)c1 [Vismodegib] + C[C@]1(O)C[C@@H](c2nc(-c3ccc4ccc(-c5ccccc5)nc4c3)c3c(N)nccn32)C1 [Linsitinib] (partner 1 µM)
# In short: as §1
# [1] = compound: N#CC[C@H](C1CCCC1)n1cc(-c2ncnc3[nH]ccc23)cn1 [Ruxolitinib] + CC(=O)c1c(C)c2cnc(Nc3ccc(N4CCNCC4)cn3)nc2n(C2CCCC2)c1=O [Palbociclib] (partner 0.5 µM)
# In short: as §1
Cell Line,relative viability (VE-821 + AZD7762; first compound 0.08 µM),relative viability (VE-821 + AZD7762; first compound 0.253 µM),relative viability (VE-821 + AZD7762; first compound 0.8 µM),relative viability (VE-821 + AZD7762; first compound 2.53 µM),relative viability (VE-821 + AZD7762; first compound 8 µM),relative viability (Vismodegib + Palbociclib; first compound 0.08 µM),relative viability (Vismodegib + Palbociclib; first compound 0.253 µM),relative viability (Vismodegib + Palbociclib; first compound 0.8 µM),relative viability (Vismodegib + Palbociclib; first compound 2.53 µM),relative viability (Vismodegib + Palbociclib; first compound 8 µM),relative viability (Vismodegib + Linsitinib; first compound 0.08 µM),relative viability (Vismodegib + Linsitinib; first compound 0.253 µM),relative viability (Vismodegib + Linsitinib; first compound 0.8 µM),relative viability (Vismodegib + Linsitinib; first compound 2.53 µM),relative viability (Vismodegib + Linsitinib; first compound 8 µM),relative viability ([1]; first compound 0.08 µM),relative viability ([1]; first compound 0.253 µM),relative viability ([1]; first compound 0.8 µM),relative viability ([1]; first compound 2.53 µM),relative viability ([1]; first compound 8 µM)
NCI-H1355,0.773,0.621,0.499,0.539,0.195,0.391,0.441,0.384,0.413,0.433,0.844,0.724,0.798,0.808,0.856,0.416,0.371,0.429,0.402,0.368
NCI-H1395,0.379,0.391,0.369,0.366,0.362,0.609,0.599,0.606,0.711,0.673,1.07,1.36,0.961,0.961,1.18,0.596,0.555,0.674,0.636,0.572
NCI-H1437,1.13,1.12,0.956,1.11,0.514,0.305,0.303,0.309,0.311,0.325,0.855,0.977,1.03,0.95,0.892,0.541,0.41,0.448,0.417,0.378
NCI-H1651,0.457,0.386,0.4,0.463,0.366,0.463,0.511,0.502,0.51,0.54,0.922,0.924,0.925,0.931,0.961,0.506,0.496,0.524,0.502,0.525
NCI-H1666,0.753,0.705,0.798,0.705,0.713,0.634,0.678,0.637,0.624,0.691,0.877,0.871,0.69,0.773,0.967,0.66,0.613,0.654,0.675,0.632
NCI-H1734,0.4,0.428,0.334,0.334,0.184,0.372,0.348,0.364,0.255,0.358,0.878,0.831,0.878,0.825,1.01,0.374,0.299,0.337,0.345,0.354
NCI-H1755,0.434,0.368,0.38,0.323,0.175,0.49,0.456,0.409,0.368,0.502,0.926,0.969,1.02,1,0.999,0.505,0.468,0.466,0.452,0.391
NCI-H1792,0.665,0.432,0.328,0.196,0.135,0.668,0.639,0.653,0.644,0.673,0.532,0.558,0.409,0.572,0.503,0.595,0.565,0.631,0.632,0.575
NCI-H1793,0.381,0.267,,0.252,0.214,,0.295,0.345,0.321,0.422,,0.701,0.903,1.04,0.824,0.291,0.287,0.307,0.319,0.335
NCI-H1915,0.7,0.618,0.594,0.537,0.321,0.499,0.483,0.549,0.53,0.53,1.11,1.15,1.06,1.1,1.1,0.515,0.516,0.579,0.443,0.481
NCI-H1944,0.527,0.402,0.296,0.277,0.121,0.292,0.324,0.326,,0.379,1.15,1.33,1.16,1.19,1.2,0.33,0.321,0.375,0.31,0.318
NCI-H1975,0.75,0.69,0.667,0.604,0.462,0.666,0.521,0.662,0.542,0.559,0.87,0.919,0.975,0.908,0.977,0.492,0.395,0.612,0.469,0.277
NCI-H1993,0.958,0.669,0.603,0.723,0.552,0.699,0.682,0.636,0.568,0.565,0.737,0.816,0.669,0.677,0.775,0.519,0.552,0.807,0.68,0.707
NCI-H2085,0.952,0.843,0.366,,0.271,0.459,0.474,0.483,0.467,0.502,0.843,0.874,0.957,0.86,0.52,0.453,0.468,0.474,0.39,0.369
NCI-H2087,1.6,1.08,1.12,1.04,0.66,0.188,0.235,0.22,0.217,0.232,1,0.916,0.97,0.934,0.896,0.26,,0.271,0.18,0.239
NCI-H2126,1.07,1.05,0.987,0.928,0.615,0.329,0.335,0.342,0.333,0.328,0.667,0.711,0.638,0.762,0.677,0.382,0.333,0.371,0.363,0.363
NCI-H2347,0.703,0.746,0.42,0.698,0.531,0.443,0.418,0.419,0.448,0.488,0.902,0.997,0.857,0.962,1.04,0.425,0.395,0.42,0.43,0.478
NCI-H2405,0.791,0.677,0.598,0.553,0.25,0.527,0.493,0.498,0.515,0.571,,0.859,0.806,0.776,1.07,0.52,0.514,0.589,0.295,0.389
NCI-H3122,1.05,0.857,0.97,0.654,0.545,0.173,0.191,0.167,0.18,0.19,1.03,1.01,1.01,0.924,0.965,0.182,0.228,0.208,0.166,0.191
PC-3 [JPC-3],0.882,0.728,0.99,0.798,0.62,0.522,0.547,0.511,0.506,0.572,0.934,0.941,1.04,0.988,0.933,,0.596,0.579,0.566,0.553
PC-14,0.362,0.232,0.315,0.338,0.187,0.494,0.492,0.614,0.587,0.621,0.897,0.911,0.982,0.899,0.998,,0.546,0.595,0.46,0.304
RERF-LC-KJ,0.994,0.975,0.974,1.03,0.688,1.03,1,1.08,1.02,1.14,0.846,0.922,0.796,0.823,0.839,1.03,1.13,1.25,1.13,0.934
